“And” between values parts separate entries of the source, which are not always exact repeats. Equal entries are not always repeated. Marks after values point to notes of the source that are not given here.
System: pES cells of the M215-3 strain
Assay: Directed neural differentiation of pES cells (two-stage induction), immunocytochemical staining for neural biomarkers
Type: cell-based, porcine
Description: The pES cells of the M215-3 strain derived from the pre-implantation blastocysts of Taiwan Livestock Research Institute Black Pig No. 1 (a topcrossing breed established from Taoyuan and Duroc pigs) were maintained in ES-cell culture medium (ESM) consisting of Dulbecco's modified eagle medium (DMEM, high glucose and no pyruvate, Invitrogen, Grand Island, N.Y., USA) supplemented with 1 mM L-glutamine (Sigma-Aldrich, St. Louis, Mo., USA), 0.1 mM β-2-mercaptoethanol (Sigma-Aldrich), […] MEM non-essential amino acids (Sigma-Aldrich), 0.03 mM adenosine (Sigma-Aldrich), 0.03 mM guanosine (Sigma-Aldrich), 0.03 mM cytidine (Sigma-Aldrich), 0.03 mM uridine (Sigma-Aldrich), 0.01 mM thymidine (Sigma-Aldrich), antibiotics (50 units/ml penicillin G and 50 μg/ml streptomycin sulfate, Invitrogen) and 16% fetal bovine serum (FBS, Invitrogen) as described previously (Chen et al., 1991, J. Chin. Soc. Anim. Sci. 20: 326-339). Briefly, the pluripotent pES cells were propagated on a feeder layer of mitomycin C (Sigma-Aldrich) inactivated STO cells (mouse embryonic fibroblasts, CRL-1503, USA) in gelatin-coated Multidish 4 Wells® (Nunc 176740, Roskilde, Denmark) in ESM at 39° C. with an atmosphere of 5% CO2 in air. For the maintenance of undifferentiation, pES colonies were regulatory subcultured with 0.25% trypsin-0.02 mM EDTA (Invitrogen) and re-plated onto fresh STO feeder layers every 5 to 7 days.
Confluent pES cells were trypsinized and subjected to a two-stage in vitro induction protocol for neural differentiation. They were firstly taken into a suspension culture in an Easy Flask® (NUNC 169900, Roskilde, Denmark) for a 12-day period of neural induction. Neural induction is initiated by plating undifferentiated pES cells as single-cell suspension at a number of 1×10^5 cells totally in ESM medium withdrawing FBS and containing 1 μM retinoic acid (RA, Sigma-Aldrich), 200 ng/ml sonic hedgehog (SHH, R&D systems, Minneapolis, Minn., USA) and 100 ng/ml fibroblast growth factor (FGF, Sigma-Aldrich) as described by Barberi et al. (Nat. Biotechnol. 2003. 21: 1200-1207). Five combined treatments of neurogenic stimulators for neural induction were applied: (1) RA, (2) RA+SHH, (3) RA+FGF, (4) SHH+FGF, (5) RA+SHH+FGF. After 12 days of induction, the pES cell-derived neural cells were plated onto gelatin-coated 4-well dishes in high-density (2×10^4 cells/ml) or low-density (5×10^3 cells/ml). These cells were then cultured in DMEM/F12 medium (Sigma-Aldrich) supplemented with 10% FBS, 20 ng/ml human recombinant epidermal growth factor (hrEGF, Invitrogen), 20 ng/ml human recombinant basic fibroblast growth factor (hrbFGF, Invitrogen), and 1:100 N2 (Invitrogen), and allowed for the propagation of neural precursor cells (Pan et al., 2005 Biochem. Biophys. Res. Commun. 327: 548-556). After plating onto the 4-well dish, the induced pES cells were treated with trypsin/EDTA and collected at days 2, 4, 6, 8, 10, and 12, respectively, to analyze the neural-related development by immunocytochemical staining.
Cells for immunocytochemical analysis were fixed in 10% formalin at room temperature for 30 minutes. The cells were washed with phosphate buffered saline (PBS, Sigma-Aldrich), then incubated with 0.3% Triton X-100 (Sigma-Aldrich) for 10 minutes, 3% H2O2 (Sigma-Aldrich) for 5 minutes and incubated in blocking buffer (5% FBS) at room temperature for 2 hours. After being washed with PBS, the cells were incubated overnight with appropriate dilution of primary antibody, or combination of antibodies at 4° C. (Li et al., 2005 Nat. Biotechnol. 2005. 23: 215-221). Subsequently, cells were incubated with secondary antibody of Fluorescein (FITC)-conjugated AffiniPure Goat Anti-Rabbit IgG, Goat Anti-Mouse IgG, IgM (1:200, Jackson Immunoresearch Laboratories, West Baltimore Pike, Pa., USA) for a minimum of 2 hours, followed by washing in PBS. […]

[1] = day 6 after the treatments, mean±S.D.

Compound: CC1=C(/C=C/C(C)=C/C=C/C(C)=C/C(=O)O)C(C)(C)CCC1 [RA, retinoic acid]
- percentage of pES cell-derived neural lineages expressing nestin (D2 after replating, 12-day induction, 1 μM RA, 200 ng/ml SHH, 100 ng/ml FGF, mean±S.D.): 86.2 ± 7.9^ab %
- percentage of pES cell-derived neural lineages expressing A2B5 (D2 after replating, mean±S.D.): 83.7 ± 12.6%
- percentage of pES cell-derived neural lineages expressing ChAT (D2 after replating, mean±S.D.): 87.1 ± 5.6^ab %
- percentage of pES cell-derived neural lineages expressing GFAP (D2 after replating, mean±S.D.): 9.8 ± 3.8%
- percentage of pES cell-derived neural lineages expressing NFL (D2 after replating, mean±S.D.): 93.9 ± 3.9^a %
- percentage of pES cell-derived neural lineages expressing TH (D2 after replating, mean±S.D.): 7.8 ± 2.5%
- percentage of pES cell-derived neural lineages expressing A2B5 (D4 after replating, mean±S.D.): 86.6 ± 3.3%
- percentage of pES cell-derived neural lineages expressing ChAT (D4 after replating, mean±S.D.): 85.8 ± 3.2^bc %
- percentage of pES cell-derived neural lineages expressing GFAP (D4 after replating, mean±S.D.): 7.6 ± 4.2%
- percentage of pES cell-derived neural lineages expressing NFL (D4 after replating, mean±S.D.): 90.3 ± 4.8^ab %
- percentage of pES cell-derived neural lineages expressing TH (D4 after replating, mean±S.D.): 8.0 ± 4.9%
- percentage of pES cell-derived neural lineages expressing nestin (D4 after replating, mean±S.D.): 90.5 ± 4.7^a %
- percentage of pES cell-derived neural lineages expressing A2B5 (D6 after replating, mean±S.D.): 87.6 ± 7.4% and 87.6 ± 7.4^a %
- percentage of pES cell-derived neural lineages expressing ChAT (D6 after replating, mean±S.D.): 91.8 ± 8.3^a %
- percentage of pES cell-derived neural lineages expressing GFAP (D6 after replating, mean±S.D.): 7.7±3.6% and 7.7 ± 3.6^d %
- percentage of pES cell-derived neural lineages expressing NFL (D6 after replating, mean±S.D.): 91.8 ± 6.0^a %
- percentage of pES cell-derived neural lineages expressing TH (D6 after replating, mean±S.D.): 8.7±1.7% and 8.7 ± 1.7^b %
- percentage of pES cell-derived neural lineages expressing A2B5 (D8 after replating, mean±S.D.): 86.9 ± 9.3%
- percentage of pES cell-derived neural lineages expressing ChAT (D8 after replating, mean±S.D.): 86.9 ± 4.4^ab %
- percentage of pES cell-derived neural lineages expressing GFAP (D8 after replating, mean±S.D.): 7.3 ± 1.5%
- percentage of pES cell-derived neural lineages expressing NFL (D8 after replating, mean±S.D.): 85.8 ± 4.2^b %
- percentage of pES cell-derived neural lineages expressing TH (D8 after replating, mean±S.D.): 8.5 ± 2.7%
- percentage of pES cell-derived neural lineages expressing nestin (D8 after replating, mean±S.D.): 81.2 ± 8.0^bc %
- percentage of pES cell-derived neural lineages expressing A2B5 (D10 after replating, mean±S.D.): 86.3 ± 1.9%
- percentage of pES cell-derived neural lineages expressing ChAT (D10 after replating, mean±S.D.): 89.9 ± 7.2^ab %
- percentage of pES cell-derived neural lineages expressing GFAP (D10 after replating, mean±S.D.): 7.7 ± 4.5%
- percentage of pES cell-derived neural lineages expressing NFL (D10 after replating, mean±S.D.): 84.4 ± 7.7^b %
- percentage of pES cell-derived neural lineages expressing TH (D10 after replating, mean±S.D.): 8.5 ± 4.2%
- percentage of pES cell-derived neural lineages expressing nestin (D10 after replating, mean±S.D.): 82.4 ± 11.4^bc %
- percentage of pES cell-derived neural lineages expressing A2B5 (D12 after replating, mean±S.D.): 84.8 ± 5.2%
- percentage of pES cell-derived neural lineages expressing ChAT (D12 after replating, mean±S.D.): 80.3 ± 6.0^c %
- percentage of pES cell-derived neural lineages expressing GFAP (D12 after replating, mean±S.D.): 7.6 ± 2.3%
- percentage of pES cell-derived neural lineages expressing NFL (D12 after replating, mean±S.D.): 74.4 ± 12.3^c %
- percentage of pES cell-derived neural lineages expressing TH (D12 after replating, mean±S.D.): 8.4 ± 3.5%
- percentage of pES cell-derived neural lineages expressing nestin (D12 after replating, mean±S.D.): 77.9 ± 6.6^c %
- percentage of pES cell-derived neural lineages expressing CNPase [1]: 89.8 ± 4.7^ab %
- percentage of pES cell-derived neural lineages expressing GABA [1]: 80.5±9.2% and 80.5 ± 9.2^a %
- percentage of pES cell-derived neural lineages expressing MAP2 [1]: 86.1 ± 3.2^a %
- percentage of pES cell-derived neural lineages expressing O4 [1]: 90.7 ± 5.9%
- percentage of pES cell-derived neural lineages expressing S100 [1]: 71.4 ± 12.5^a %
- percentage of differentiated cells GFAP positive (during the 12-day post-treatment period (Table 3)): Less than 10%
- percentage of cells expressing TH (during the culture, day 2 to day 12 (text summary of Table 5)): below 10%
- ratio of cells expressing A2B5 (during the following culture, day 2 to day 12 (text summary of Table 4)): above 80%

From patent US20090253157A1, “METHOD OF DIRECTED DIFFERENTIATION OF PORCINE EMBRYONIC STEM CELLS AND USING THE SAID CELLS IN DRUG SCREENING” (Livestock Research Institute, Council of Agriculture, …, priority 2008, published 2009)
